# Reference: patent US20230027985A1, “SUBSTITUTED HYDANTOINAMIDES AS ADAMTS7 ANTAGONISTS” (Bayer Aktiengesellschaft, priority 2019, published 2023)
# Columns and labels:
# [1] = target: T1, Purified recombinant ADAMTS-7 (rat prodomain/human catalytic domain, SEQ ID No. 01 or 02) (Homo sapiens, UniProt Q9UKP4); test: Assay for ADAMTS-7 enzymatic activity (FRET substrate cleavage); type: biochemical; settings: FRET substrate SEQ ID No. 11, 120 min at 32° C.; read-out: ADAMTS7-IC50
# T1 construct: rat ADAMTS-7 signal peptide + prodomain (rat 1-217, Q1EHB3) (N); 2xStrep tag (C); 6xHis tag (C); made in house; host or cells: Expi293 cells
# T1 sequence (Q9UKP4 237-537): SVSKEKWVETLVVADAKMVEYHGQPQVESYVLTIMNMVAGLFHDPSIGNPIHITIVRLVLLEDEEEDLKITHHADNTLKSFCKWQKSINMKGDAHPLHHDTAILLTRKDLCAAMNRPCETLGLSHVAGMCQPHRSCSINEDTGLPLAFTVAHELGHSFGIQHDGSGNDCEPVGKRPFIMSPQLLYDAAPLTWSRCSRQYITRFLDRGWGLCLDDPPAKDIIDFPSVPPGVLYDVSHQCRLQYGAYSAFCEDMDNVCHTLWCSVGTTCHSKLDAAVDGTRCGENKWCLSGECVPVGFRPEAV
# How it was run: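 IC50 values were fitted from percent inhibition across test-compound concentrations. Fluorescence gain (ex 485, em 520 nm) reports cleavage of a thrombospondin-1 (275-289) FRET peptide with QXL520 quencher, after 120 min at 32 °C. The enzyme, about 20 nM, was in HEPES pH 8.0 buffer with NaCl, CaCl2, ZnCl2 and Brij.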
# [2] = target: T2, ADAMTS4 (Homo sapiens, UniProt O75173); test: Selectivity assay for ADAMTS-7 modulators (FRET), ADAMTS4; type: biochemical; settings: 50 nM enzyme (R&D 4307-AD), 1 μM Dabcyl/Edans FRET substrate, 120 min at 32° C.
# T2 construct: purchased R&D 4307-AD
# T2 sequence (O75173 213-685 limits assumed): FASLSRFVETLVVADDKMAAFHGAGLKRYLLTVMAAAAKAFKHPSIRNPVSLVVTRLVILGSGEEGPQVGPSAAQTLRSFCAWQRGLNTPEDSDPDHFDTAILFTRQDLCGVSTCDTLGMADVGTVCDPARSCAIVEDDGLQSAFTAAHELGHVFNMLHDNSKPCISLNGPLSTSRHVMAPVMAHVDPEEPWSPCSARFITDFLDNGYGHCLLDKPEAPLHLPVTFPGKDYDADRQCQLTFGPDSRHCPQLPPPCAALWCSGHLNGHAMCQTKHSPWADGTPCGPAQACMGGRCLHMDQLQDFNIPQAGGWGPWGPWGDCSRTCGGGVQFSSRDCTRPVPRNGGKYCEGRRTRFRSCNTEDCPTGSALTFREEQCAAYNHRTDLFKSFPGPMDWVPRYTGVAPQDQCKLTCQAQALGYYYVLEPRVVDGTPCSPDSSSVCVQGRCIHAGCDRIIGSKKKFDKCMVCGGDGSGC
# How it was run: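 Enzyme in 50 mM Tris pH 7.5, 150 mM NaCl, 10 mM CaCl2, 0.05% Brij, preincubated with compound in DMSO; reaction started with FRET substrate. Fluorescence increase read after 120 min at 32° C; IC50 from percent inhibition versus compound concentration.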
IC50 [1] [µM],IC50 [2] [µM],Compound
0.18,7.6,"O=C1NC(=O)[C@](CNC(=O)c2cnn(-c3ccccc3F)n2)(C2CC2)N1 [Example 37, N-{[(4R)-4-cyclopropyl-2,5-dioxoimidazolidin-4-yl]methyl}-2-(2-fluorophenyl)-2H-1,2,3-triazole-4-carboxamide]"
0.01,2.8,"O=C1NC(=O)C(CNC(=O)c2cnn(-c3ccccc3)n2)(c2ccccn2)N1 (stereo not drawn) [Example 38, ent-N-{[2,5-dioxo-4-(pyridin-2-yl)imidazolidin-4-yl]methyl}-2-phenyl-2H-1,2,3-triazole-4-carboxamide]"
0.98,25,"C[C@H](NC(=O)c1cnn(-c2ccccc2)n1)C1(C2CC2)NC(=O)NC1=O (stereo partly drawn) [Example 40, ent-N-((1S)-1-(4-Cyclopropyl-2,5-dioxoimidazolidin-4-yl)ethyl)-2-phenyl-2H-1,2,3-triazole-4-carboxamide]"
0.055,1.7,"O=C1NC(=O)[C@](CNC(=O)c2coc(-c3ccc(F)cc3)n2)(C2CC2)N1 [Example 41, N-{[(4R)-4-cyclopropyl-2,5-dioxoimidazolidin-4-yl]methyl}-2-(4-fluorophenyl)-1,3-oxazole-4-carboxamide]"
0.35,12,"O=C1NC(=O)[C@](CNC(=O)c2nnc(-c3ccc(F)cc3)o2)(C2CC2)N1 [Example 42, N-{[(4R)-4-cyclopropyl-2,5-dioxoimidazolidin-4-yl]methyl}-5-(4-fluorophenyl)-1,3,4-oxadiazole-2-carboxamide]"
0.32,13,"CC1(C)CC1C1(CNC(=O)c2cnn(-c3ccccc3)n2)NC(=O)NC1=O (stereo not drawn) [Example 43, ent-N-{[4-(2,2-dimethylcyclopropyl)-2,5-dioxoimidazolidin-4-yl]methyl}-2-phenyl-2H-1,2,3-triazole-4-carboxamide]"
0.25,5,"CC(C)(C)CC1(CNC(=O)c2cnn(-c3ccccc3)n2)NC(=O)NC1=O (stereo not drawn) [Example 44, ent-N-{[4-(2,2-dimethylpropyl)-2,5-dioxoimidazolidin-4-yl]methyl}-2-phenyl-2H-1,2,3-triazole-4-carboxamide]"
0.098,7.65,"O=C1NC(=O)[C@](CNC(=O)c2cnn(-c3ccccn3)n2)(C2CC2)N1 [Example 47, N-{[(4R)-4-cyclopropyl-2,5-dioxoimidazolidin-4-yl]methyl}-2-(pyridin-2-yl)-2H-1,2,3-triazole-4-carboxamide]"
0.129,1.8,"O=C1NC(=O)[C@](CNC(=O)c2cnn(-c3ccccc3)c2)(C2CC2)N1 [Example 56, N-{[(4R)-4-cyclopropyl-2,5-dioxoimidazolidin-4-yl]methyl}-1-phenyl-1H-pyrazole-4-carboxamide]"
0.19,17,CC(CO)C1(CNC(=O)c2cnn(-c3ccccc3)n2)NC(=O)NC1=O (centres unmarked) [Example 57]
0.55,11.3,"O=C1NC(=O)[C@](CNC(=O)c2cnc(-c3ccccc3)o2)(C2CC2)N1 [Example 59, N-{[(4R)-4-cyclopropyl-2,5-dioxoimidazolidin-4-yl]methyl}-2-phenyl-1,3-oxazole-5-carboxamide]"
0.259,8.4,"O=C1NC(=O)[C@](CNC(=O)c2cnn(-c3ccccn3)n2)(C2CC2)N1 [Example 60, N-{[(4R)-4-cyclopropyl-2,5-dioxoimidazolidin-4-yl]methyl}-2-(pyridin-2-yl)-2H-1,2,3-triazole-4-carboxamide]"
0.076,10,"CC(C)C1(CNC(=O)c2cnn(-c3ccccc3)n2)NC(=O)NC1=O (stereo not drawn) [Example 70, ent-N-[(2,5-dioxo-4-(propan-2-yl)imidazolidin-4-yl)methyl]-2-phenyl-2H-1,2,3-triazole-4-carboxamide]"
0.047,13.1,"CC(C)(C)C1(CNC(=O)c2cnn(-c3ccccc3)n2)NC(=O)NC1=O (stereo not drawn) [Example 71, ent-N-[(4-tert-butyl-2,5-dioxoimidazolidin-4-yl)methyl]-2-phenyl-2H-1,2,3-triazole-4-carboxamide]"
0.13,6.2,"O=C1NC(=O)C(CNC(=O)c2cnn(-c3ccc(F)cc3)n2)(CC2CC2)N1 (stereo not drawn) [Example 72, ent-N-[(4-(cyclopropylmethyl)-2,5-dioxoimidazolidin-4-yl]methyl]-2-(4-fluorophenyl)-2H-1,2,3-triazole-4-carboxamide]"
0.06,5.1,"CCCC1(CNC(=O)c2cnn(-c3ccc(F)cc3)n2)NC(=O)NC1=O (stereo not drawn) [Example 73, ent-N-[(2,5-dioxo-4-propylimidazolidin-4-yl)methyl]-2-(4-fluorophenyl)-2H-1,2,3-triazole-4-carboxamide]"
0.033,5.9,"O=C1NC(=O)C(CNC(=O)c2cnn(-c3ccc(F)cc3)n2)(C2CCCC2)N1 (stereo not drawn) [Example 74, ent-N-[(4-cyclopentyl-2,5-dioxoimidazolidin-4-yl)methyl]-2-(4-fluorophenyl)-2H-1,2,3-triazole-4-carboxamide]"
0.014,4.1,"O=C1NC(=O)C(CNC(=O)c2cnn(-c3ccc(F)cc3)n2)(C2CCCCC2)N1 (stereo not drawn) [Example 75, ent-N-[(4-cyclohexyl-2,5-dioxoimidazolidin-4-yl)methyl]-2-(4-fluorophenyl)-2H-1,2,3-triazole-4-carboxamide]"
0.008,2.77,"CC(C)C1(CNC(=O)c2cnn(-c3ccc(F)cc3)n2)NC(=O)NC1=O (stereo not drawn) [Example 76, ent-N-[(2,5-dioxo-4-(propan-2-yl)imidazolidin-4-yl)methyl]-2-(4-fluorophenyl)-2H-1,2,3-triazole-4-carboxamide]"
0.024,4.38,"O=C1NC(=O)C(CNC(=O)c2cnn(-c3ccc(F)cc3)n2)(C2CCC2)N1 (stereo not drawn) [Example 77, ent-N-[(4-cyclobutyl-2,5-dioxoimidazolidin-4-yl)methyl]-2-(4-fluorophenyl)-2H-1,2,3-triazole-4-carboxamide]"
0.191,19,"CCCCC1(CNC(=O)c2cnn(-c3ccccc3)n2)NC(=O)NC1=O (stereo not drawn) [Example 78, ent-N-[(4-butyl-2,5-dioxoimidazolidin-4-yl)methyl]-2-phenyl-2H-1,2,3-triazole-4-carboxamide]"
0.078,11,"O=C1NC(=O)C(CNC(=O)c2cnn(-c3ccccc3)n2)(C2CCC2)N1 (stereo not drawn) [Example 79, ent-N-[(4-cyclobutyl-2,5-dioxoimidazolidin-4-yl)methyl]-2-phenyl-2H-1,2,3-triazole-4-carboxamide]"
0.25,2.9,"O=C1NC(=O)C(CNC(=O)c2nc(-c3ccccc3)no2)(CC2CC2)N1 (stereo not drawn) [Example 80, ent-N-[(4-(cyclopropylmethyl)-2,5-dioxoimidazolidin-4-yl)methyl]-3-phenyl-1,2,4-oxadiazole-5-carboxamide]"
0.048,3.1,CCCCC1(CNC(=O)c2cnn(-c3ccc(F)cc3)n2)NC(=O)NC1=O (centres unmarked) [Example 82]

Compound,IC50 [1] [µM],IC50 [2] [µM]
"O=C1NC(=O)[C@](CNC(=O)c2cnn(-c3ccccc3)n2)(C2CC2)N1 [Example 45, N-{[(4R)-4-cyclopropyl-2,5-dioxoimidazolidin-4-yl]methyl}-2-phenyl-2H-1,2,3-triazole-4-carboxamide]",0.069,1.45
